The values that follow are results of earlier work, collected in US8828412B2, “Stable polyphenol containing ophthalmic emulsion for treating dry eyes” (Abbott Medical Optics Inc., priority 2009, dated 2014).

The conditions of the series: reported; species not stated.

For the compound `COc1cc(/C=C/C(=O)CC(=O)/C=C/c2ccc(O)c(OC)c2)ccc1O` [curcumin], the oral bioavailability entry is reported as “about 60%”.
